Structures are written as SMILES.

For experiment [1], the target named is T1, Muscarinic acetylcholine receptor (Rattus norvegicus) (UniProt P08482+P08483+P08485+P08911+P10980). Conditions: 1.0 uM.
Experiment [2] concerns the target T1, Muscarinic acetylcholine receptor (Rattus norvegicus). Conditions: 0.1 uM.
The target of experiment [3] is Muscarinic acetylcholine receptor.
Description: Compound was evaluated for its ability to displace muscarinic agonist [3H]quinuclidinyl benzilate in rat cortical tissue (RCMD binding assay), at 0.1 uM concentration
Experiment [4] shares this target. The source holds these as a separate data set.
Description: Compound was evaluated for its ability to displace muscarinic antagonist [3H]cis-methyldioxolane in rat cortical tissue (RQNB binding assay), at 1.0 uM concentration
In experiment [5] the target is T2, Muscarinic acetylcholine receptor M2 (Rattus norvegicus, UniProt P10980).
T2 sequence (P10980 whole entry): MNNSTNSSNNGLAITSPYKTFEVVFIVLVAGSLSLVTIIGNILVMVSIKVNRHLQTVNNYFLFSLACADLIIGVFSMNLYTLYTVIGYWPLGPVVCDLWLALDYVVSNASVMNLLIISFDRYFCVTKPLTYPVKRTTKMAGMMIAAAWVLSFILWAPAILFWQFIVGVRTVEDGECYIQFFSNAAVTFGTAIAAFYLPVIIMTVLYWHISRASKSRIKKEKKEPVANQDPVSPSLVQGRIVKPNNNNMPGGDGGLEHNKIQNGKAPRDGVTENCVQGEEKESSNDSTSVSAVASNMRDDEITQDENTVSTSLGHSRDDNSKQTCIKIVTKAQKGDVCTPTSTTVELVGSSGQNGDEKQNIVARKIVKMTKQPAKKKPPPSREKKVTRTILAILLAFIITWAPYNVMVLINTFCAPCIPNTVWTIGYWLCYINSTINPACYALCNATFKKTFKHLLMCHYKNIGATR
The experiment is described as follows: biochemical.
Description: Compound was evaluated for the displacement of the muscarinic QNB in rat heart homogenate containing the pharmacologic M2 receptor (M2-QNB heart)

Experiment [6] concerns SK-N-SH.
The target of experiment [7] is T3, Muscarinic acetylcholine receptor M1 (Rattus norvegicus, UniProt P08482).
T3 sequence (P08482 whole entry): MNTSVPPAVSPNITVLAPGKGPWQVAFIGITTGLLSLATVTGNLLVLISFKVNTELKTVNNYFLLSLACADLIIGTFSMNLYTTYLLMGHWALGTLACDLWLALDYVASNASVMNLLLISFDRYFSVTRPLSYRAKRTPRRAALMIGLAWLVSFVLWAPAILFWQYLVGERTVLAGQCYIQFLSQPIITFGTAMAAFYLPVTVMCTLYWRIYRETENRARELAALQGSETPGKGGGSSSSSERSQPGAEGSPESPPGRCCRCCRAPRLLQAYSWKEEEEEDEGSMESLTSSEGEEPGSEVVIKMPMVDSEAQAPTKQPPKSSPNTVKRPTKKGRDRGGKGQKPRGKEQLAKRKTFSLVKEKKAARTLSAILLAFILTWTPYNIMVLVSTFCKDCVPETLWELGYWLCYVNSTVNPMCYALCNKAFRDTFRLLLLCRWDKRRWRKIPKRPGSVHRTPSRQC
Description: Compound was evaluated for the displacement of the muscarinic QNB in a genetically transformed rat cell line (m1c2) transfected with cloned m1 receptors (m1-QNBm1c2)

For experiment [8], the system named is SK-N-SH. The experiment is described as follows: Phosphoinositide (PI) turnover was assessed by the ability to stimulate [3H]- inositol phosphate accumulation in human SK-N-SH neuroblastoma cells relative to carbachol. Format: functional.

Regarding `CCN1C(=O)OC[C@H]1Cc1cncn1C`, the inhibition in experiment [1] was found to be 0%; in experiment [2], 6%.
On the same counts, the results for `CCN1C(=O)OC[C@@H]1Cc1c[nH]cn1` are 4% and 4%.
Regarding `CCCN1C(=O)OC[C@@H]1Cc1cncn1C`, the figures for the IC50 in experiment [3] and in experiment [4] were 73 µM and 3300 µM, respectively.
`O=C1CCCN1CC#CCN1CCCC1` [OXOTREMORINE]: the IC50 is 0.86 µM in experiment [5] and 0.36 µM in experiment [7]. Besides, the PI turnover in experiment [6] was 33%.
On to `CCCN1C(=O)OC[C@@H]1Cc1cn(C)cn1`, for which the values for the inhibition in experiment [1] and in experiment [2] were 10% and 2%, respectively.
For the molecule `CCN1C(=O)OC[C@@H]1Cc1cncn1C`, the IC50 in experiment [3] stood at 0.043 µM; in experiment [5], 30.9 µM; in experiment [4], 8.9 µM; in experiment [7] it was 12.7 µM. Besides, the PI turnover in experiment [8] was determined as 16%.
In the case of `CCN1C(=O)OC[C@H]1Cc1cn(C)cn1`, the inhibition in experiment [1] was 1%; in experiment [2], 0%.
Take `CCN1C(=O)OC[C@H]1Cc1c[nH]cn1`: the inhibition in experiment [1] worked out at 2%; in experiment [2], 0%.
Turning to `CN1C(=O)OC[C@@H]1Cc1cncn1C`, the inhibition in experiment [1] was determined as 2%; in experiment [2] it was 11%.
In turn, `C[N+](C)(C)CCOC(N)=O.[Cl-]` [CARBACHOL] showed a PI turnover in experiment [6] of 100%.
On to `CCCN1C(=O)OC[C@@H]1Cc1c[nH]cn1`, for which the inhibition worked out at 4% in experiment [1] and 2% in experiment [2].
For `CN1C(=O)OC[C@@H]1Cc1c[nH]cn1`, in that order: 0% and 0%.

The values above are taken from ChEMBL document CHEMBL1125978 (Bioorg Med Chem Lett, 1991).
